Experimental data reported in US11992490B2, “Use of JAK1 inhibitors for the treatment of cutaneous lupus erythematosus and Lichen planus (LP)” (Incyte Corporation, priority 2019, dated 2024).

Tests used:
[1] = molecular target: human JAK1 (a.a. 837-1142) (Homo sapiens, UniProt P23458); experiment: In vitro JAK kinase assay (HTRF), JAK1; assay type: biochemical; conditions: 1 mM ATP
[2] = tested on: JAK1-phosphorylation in HaCaT keratinocytes; experiment: JAK1-phosphorylation (anti-pJAK1 immunofluorescence) in eNA-stimulated HaCaT; assay type: cell-based, human; conditions: inhibitor 1 μM
[3] = molecular target: human JAK2 (a.a. 828-1132) (Homo sapiens (Human), UniProt O60674); experiment: In vitro JAK kinase assay (HTRF), JAK2; assay type: biochemical; conditions: JAK2/JAK1 IC50 ratio, 1 mM ATP
[4] = tested on: CLE-typical genes in NHEK; experiment: Gene expression (RNA sequencing, KEGG pathways) in eNA-stimulated NHEK; assay type: cell-based, human; conditions: for Count: number of genes >2-fold downregulated: NHEK
Procedure: To analyze the functional principle and effect of JAK inhibition, the following established in vitro models of CLE were used. Immortalized keratinocytes (HaCaT), were acquired from CLS Cell Lines Service GmbH, Eppelheim, Germany), normal human epidermal keratinocytes (NHEKs, FC-0025) and Human epidermis equivalents (epiCS, CS-1001) from CellSystems, Troisdorf, Germany. These cell lines were cultured according the manufactures protocols. Cultured keratinocytes were stimulated with endogenous nucleic acids (eNA, 1.25 μg/mL) isolated from unstimulated keratinocytes using the “Genomic DNA from tissue” kit (Machery-Nagel, Dueren, Germany). Lipofectamine 2000 (Invitrogen, Carlsbad, USA) functioned as a transfection reagent (2.5 μL/mL). […] All experiments were implemented in biological triplicates. Enzyme-linked immunosorbent assays for human CXCL10 (DY266-05 R&D systems) were performed using DuoSet Ancillary Reagent Kit 2 (DY008 R&D systems) according to the supplied protocol, measured by Synergy HT Multi-Detection Multiplate Reader (BioTek, Winooski, VT, USA) and read out with Gen5 software (version 1.11.5).
To investigate the efficacy of pharmacological JAK1 inhibition, in vitro analyses in three different CLE-models were performed (i) NHEK-cells, (ii) HaCaT-cells and (iii) 3D epidermis equivalents.

TREX1−/− mice = experiment: Topical treatment of CLE-like lesions in UV-stimulated lupus-prone TREX1-/- mice; assay type: in vivo, mouse; conditions: 1% topical, seven days
From the text: TREX1^−/− mice (generated on C57BL/6J background; Cancer Research Institute, London, UK) were bred and maintained under specific pathogen-free conditions at the animal core facility of UKB Bonn (HET, Bonn, Germany). TREX1^−/− mice (n=8) were back-shaved and treated with 0.2% DNFB (1-Fluor-2,4-dinitrobenzol, Sigma Aldrich). 4 days later, UV-irradiation on 3 sequential days started with 450 mJ/cm^2 UVB for 115 seconds per day using UV801KL (Waldmann, Villingen-Schwenningen, Germany). For 7 days 1% INCB039110 or vehicle solved in DMSO and olive oil (50 μL per mouse) were applied topically. Every day photos of mice were taken and every 2 days mice were weighed.

MRL-lpr mice = experiment: Topical treatment of CLE-like lesions in lupus-prone MRL-lpr mice; assay type: in vivo, mouse
From the text: Topical treatment with JAK1-selective INCB054707 started with the MRL-lpr Mice at 11 weeks of age.

[5] = tested on: patients with systemic lupus erythematosus; conditions: cited from earlier work
SLE patients = conditions: cited from earlier work
[6] = second independent experiment, dose-response
[7] = topical, 11 to 22 weeks, compared to placebo-treated mice

Chain of human JAK2 (a.a. 828-1132) (O60674 828-1132): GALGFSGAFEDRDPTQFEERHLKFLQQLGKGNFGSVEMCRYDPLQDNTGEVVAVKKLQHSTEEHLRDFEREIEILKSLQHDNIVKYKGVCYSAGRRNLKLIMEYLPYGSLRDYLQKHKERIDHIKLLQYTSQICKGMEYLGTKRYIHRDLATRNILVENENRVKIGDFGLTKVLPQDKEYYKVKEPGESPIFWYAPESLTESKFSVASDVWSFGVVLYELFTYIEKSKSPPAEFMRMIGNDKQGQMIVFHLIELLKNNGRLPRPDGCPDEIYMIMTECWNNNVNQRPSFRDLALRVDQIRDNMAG

N#CCC1(n2cc(-c3ncnc4[nH]ccc34)cn2)CN(C2CCN(C(=O)c3ccnc(C(F)(F)F)c3F)CC2)C1 [Compound 1, {1-{1-[3-Fluoro-2-(trifluoromethyl)isonicotinoyl]piperidin-4-yl}-3-[4-(7H-pyrrolo[2,3-d]pyrimidin-4-yl)-1H-pyrazol-1-yl]azetidin-3-yl}acetonitrile]
IC50 [1]: < 10 nM | activation of JAK1 (JAK1-phosphorylation) [2]: significantly decreased | JAK2/JAK1 [3]: >10 | Count: number of genes >2-fold downregulated ([4]; Arachidonic acid metabolism hsa00590): 4 | Count: number of genes >2-fold downregulated ([4]; Chemokine signalling pathway hsa04062): 5 | Count: number of genes >2-fold downregulated ([4]; Cytokine-cytokine receptor interaction hsa04060): 9 | Count: number of genes >2-fold downregulated ([4]; Cytosolic DNA-sensing pathway hsa04623): 3 | Count: number of genes >2-fold downregulated ([4]; Ether lipid metabolism hsa00565): 3 | Count: number of genes >2-fold downregulated ([4]; Linoleic acid metabolism hsa00591): 3 | Count: number of genes >2-fold downregulated ([4]; Toll-like receptor signalling pathway hsa04620): 4 | Count: number of genes >2-fold downregulated ([4]; alpha-Linolenic acid metabolism hsa00592): 3 | downregulated expression of CLE-typical genes ([4]; eNA-stimulated NHEK, p<0.05): > 2 fold | histological features: epidermal thickness and infiltrating dermal immune cells (TREX1−/− mice): significantly improved | lesional skin regarding erythema, induration, scaling and size (TREX1−/− mice): continuously improved | lupus-skin-activity-score (adapted CLASI score) (TREX1−/− mice; compared to placebo-treated mice): significantly reduced

C[C@@H](CO)NCc1cc(OC2CCN([C@H]3C[C@](CC#N)(n4cc(-c5ncnc6[nH]ccc56)cn4)C3)CC2)nc(C(F)(F)F)c1 [Compound 23, {trans-3-(4-{[4-({[(1S)-2-hydroxy-1-methylethyl]amino}methyl)-6-(trifluoromethyl)pyridin-2-yl]oxy}piperidin-1-yl)-1-[4-(7H-pyrrolo[2,3-d]pyrimidin-4-yl)-1H-pyrazol-1-yl]cyclobutyl}acetonitrile]
IC50 [1]: < 10 nM | JAK2/JAK1 [3]: >10

C[C@@H](O)CNCc1cc(OC2CCN([C@H]3C[C@](CC#N)(n4cc(-c5ncnc6[nH]ccc56)cn4)C3)CC2)nc(C(F)(F)F)c1 [Compound 24, {trans-3-(4-{[4-({[(2R)-2-hydroxypropyl]amino}methyl)-6-(trifluoromethyl)pyridin-2-yl]oxy}piperidin-1-yl)-1-[4-(7H-pyrrolo[2,3-d]pyrimidin-4-yl)-1H-pyrazol-1-yl]cyclobutyl}acetonitrile]
IC50 [1]: < 10 nM | JAK2/JAK1 [3]: >10

C[C@H](O)CNCc1cc(OC2CCN([C@H]3C[C@](CC#N)(n4cc(-c5ncnc6[nH]ccc56)cn4)C3)CC2)nc(C(F)(F)F)c1 [Compound 25, {trans-3-(4-{[4-({[(2S)-2-hydroxypropyl]amino}methyl)-6-(trifluoromethyl)pyridin-2-yl]oxy}piperidin-1-yl)-1-[4-(7H-pyrrolo[2,3-d]pyrimidin-4-yl)-1H-pyrazol-1-yl]cyclobutyl}acetonitrile]
IC50 [1]: < 10 nM | JAK2/JAK1 [3]: >10

N#CC[C@]1(n2cc(-c3ncnc4[nH]ccc34)cn2)C[C@H](N2CCC(Oc3cc(CCO)cc(C(F)(F)F)n3)CC2)C1 [Compound 26, {trans-3-(4-{[4-(2-hydroxyethyl)-6-(trifluoromethyl)pyridin-2-yl]oxy}piperidin-1-yl)-1-[4-(7H-pyrrolo[2,3-d]pyrimidin-4-yl)-1H-pyrazol-1-yl]cyclobutyl}acetonitrile]
IC50 [1]: < 10 nM | JAK2/JAK1 [3]: >10

Cc1n[nH]c(C)c1-c1cnn(C2(CC#N)CN(c3cc(F)c(C(=O)N[C@@H](C)C(F)(F)F)cc3F)C2)c1 [INCB054707]
cumulative skin lesion disease burden (MRL-lpr mice; [6]): significant dose-dependent effects | daily cutaneous skin lesion score (MRL-lpr mice; [6]): significant dose-dependent effects | incidence of mice with skin lesions (MRL-lpr mice; [6]): significant dose-dependent effects | cumulative skin lesion disease burden (area under the curve) (MRL-lpr mice; topical, 11 to 22 weeks): significantly reduced | cutaneous skin lesion score (MRL-lpr mice; [7]): significantly reduced | incidence of mice with skin lesions (MRL-lpr mice; [7]): significantly reduced | inflammatory markers, RNAseq of skin biopsy (MRL-lpr mice; topical, dose-dependent): downregulation of multiple inflammatory markers | lesional skin regarding erythema, induration, scaling and size (MRL-lpr mice; topical, from 11 weeks to 22 weeks of age): continuously improved

N#CC[C@H](C1CCCC1)n1cc(-c2ncnc3[nH]ccc23)cn1 [Ruxolitinib, (3R)-3-cyclopentyl-3-[4-(7H-pyrrolo[2,3-d]pyrimidin-4-yl)-1H-pyrazol-1-yl]propanenitrile, reference compound]
activation of JAK1 (JAK1-phosphorylation) [2]: significantly decreased

CCS(=O)(=O)N1CC(CC#N)(n2cc(-c3ncnc4[nH]ccc34)cn2)C1 [baricitinib]
efficacy in treatment of SLE ([5]; 2 mg or 4 mg once daily for 24 weeks, vs placebo): not effective | CLASI activity score ([5]; exploratory end point): no improvement

B1: anifrolumab: anti-IFNαβ-receptor antibody (antibody, chains of the INN, looked up)
heavy: EVQLVQSGAEVKKPGESLKISCKGSGYIFTNYWIAWVRQMPGKGLESMGIIYPGDSDIRYSPSFQGQVTISADKSITTAYLQWSSLKASDTAMYYCARHDIEGFDYWGRGTLVTVSSASTKGPSVFPLAPSSKSTSGGTAALGCLVKDYFPEPVTVSWNSGALTSGVHTFPAVLQSSGLYSLSSVVTVPSSSLGTQTYICNVNHKPSNTKVDKRVEPKSCDKTHTCPPCPAPEFEGGPSVFLFPPKPKDTLMISRTPEVTCVVVDVSHEDPEVKFNWYVDGVEVHNAKTKPREEQYNSTYRVVSVLTVLHQDWLNGKEYKCKVSNKALPASIEKTISKAKGQPREPQVYTLPPSREEMTKNQVSLTCLVKGFYPSDIAVEWESNGQPENNYKTTPPVLDSDGSFFLYSKLTVDKSRWQQGNVFSCSVMHEALHNHYTQKSLSLSPG
light: EIVLTQSPGTLSLSPGERATLSCRASQSVSSSFFAWYQQKPGQAPRLLIYGASSRATGIPDRLSGSGSGTDFTLTITRLEPEDFAVYYCQQYDSSAITFGQGTRLEIKRTVAAPSVFIFPPSDEQLKSGTASVVCLLNNFYPREAKVQWKVDNALQSGNSQESVTEQDSKDSTYSLSSTLTLSKADYEKHKVYACEVTHQGLSSPVTKSFNRGEC
CLASI skin score (SLE patients): significantly reduced
